Laboratory results as given in publication PMC8961538, “N-Acylated and N-Alkylated 2-Aminobenzothiazoles Are Novel Agents That Suppress the Generation of Prostaglandin E2” (Biomolecules, 2022).

Key:
[1] = tested on: PGE2 generation in rat mesangial cells; assay: Suppression of IL-1β/forskolin-stimulated PGE2 generation in rat renal mesangial cells; assay type: cell-based; settings: for inhibition at 3 µM / IC50: Rattus norvegicus, Mesangial cell; for IC50: IL-1β plus forskolin, read-out: EC50 (μM), inhibition of PGE2 generation
Procedure: Rat renal mesangial cells (clone MZ B1), isolated and characterized as previously described, were cultivated in RPMI 1640 medium supplemented with 10% fetal bovine serum; 10 mM 4-(2-hydroxyethyl)-1-piperazineethanesulfonic acid (HEPES), pH 7.4; 6 µg/mL of bovine insulin; 5 µg/mL of transferrin; 5 nM sodium selenite; 100 units/mL of penicillin; and 100 µg/mL of streptomycin. The cells were incubated for 4 h in Dulbecco’s modified Eagle’s medium (DMEM) containing 10 mM HEPES, pH 7.4, and 0.1 mg/mL of fatty acid-free bovine serum albumin (BSA), prior to stimulation.
Confluent mesangial cells in 24-well plates were pretreated for 20 min with varying concentrations of inhibitors and then stimulated for 24 h in a total volume of 400 µL of DMEM containing 0.1 mg/mL of BSA, in the absence or presence of 1 nM interleukin 1β (IL-1) plus 5 μM forskolin (Fk). Thereafter, the supernatants were collected and centrifuged for 5 min at 1000× g. The PGE2 in the supernatant was quantified using an enzyme-linked immunoassay (Enzo Life Sciences, Lörrach, Germany) following the manufacturer’s recommendations.
Statistical analysis of the data was performed using one-way analysis of variance (ANOVA) followed by a Bonferroni’s post hoc test for multiple comparisons (GraphPad Prism 8.4.3., San Diego, CA, USA). The half maximal effective concentrations (EC50) of the inhibitors were calculated using the same software.

[2] = 24 h, 3 μM, 1 nM IL-1β plus 5 μM forskolin

SMILES	inhibition at 3 µM [1, 2]	melting point	% Inhibition (at 3 μM) of PGE2 generation ([1]; 3 μM, 1 nM IL-1β plus 5 μM forskolin, 24 h, listed as 19)	IC50 ([1]; 0.1 to 3 µM, 24 h)	Concentration dependence of effect on PGE2 generation ([1]; 0.1 to 3 µM, low concentrations enhanced PGE2, 1 µM and 3 µM reduced it)
COC(CCc1ccccc1)Nc1nc2ccccc2s1 (centres unmarked) [Compound 18b, N-(1-Methoxy-3-Phenylpropyl)Benzo[d]Thiazol-2-Amine]	0%	–	–	–	–
O=C(/C=C/c1ccc2ccccc2c1)Nc1nc2ccccc2s1 [Compound 9a, (E)-N-(Benzo[d]Thiazol-2-yl)-3-(Naphthalen-2-yl)Acrylamide]	28%	228 to 230 °C	–	–	–
FC(F)(F)Oc1ccc2nc(NCCCc3ccc4ccccc4c3)sc2c1 [Compound 19g, N-(3-(Naphthalen-2-yl)Propyl)-6-(Trifluoromethoxy)Benzo[d]Thiazol-2-Amine]	0%	150 to 152 °C	inactive	–	–
c1ccc2c(OCCNc3nc4ccccc4s3)cccc2c1 [Compound 25b, N-(2-(Naphthalen-1-yloxy)Ethyl)Benzo[d]Thiazol-2-Amine]	57%	170 to 173 °C	–	–	–
c1ccc(CCCNc2nc3ccccc3s2)cc1 [Compound 19b, N-(3-Phenylpropyl)Benzo[d]Thiazol-2-Amine]	> 80%	99 to 102 °C	–	0.177 µM	–
O=C(CCc1ccc2ccccc2c1)Nc1nc2ccccc2o1 [Compound 5c, N-(Benzo[d]Oxazol-2-yl)-3-(Naphthalen-2-yl)Propanamide]	49%	49 to 51 °C	–	–	–
c1ccc(CCCNc2nccs2)cc1 [Compound 19f, N-(3-Phenylpropyl)Thiazol-2-Amine]	20%	83 to 84 °C	–	–	–
FC(F)(F)Oc1ccc2nc(NCCCc3cccc4ccccc34)sc2c1 [Compound 19h, N-(3-(Naphthalen-1-yl)Propyl)-6-(Trifluoromethoxy)Benzo[d]Thiazol-2-Amine]	0%	115 to 116 °C	–	–	–
O=C(NCCCc1ccc2ccccc2c1)c1nc2ccccc2s1 [Compound 14, N-(3-(Naphthalen-2-yl)Propyl)Benzo[d]Thiazole-2-Carboxamide]	64%	48 to 50 °C	–	–	–
O=C(CCCc1ccc2ccccc2c1)Nc1nc2ccccc2[nH]1 [Compound 5f, N-(1H-Benzo[d]Imidazol-2-yl)-4-(Naphthalen-2-yl)Butanamide]	66%	56 to 58 °C	–	–	–
c1ccc2c(OCCNc3nc4ccccc4o3)cccc2c1 [Compound 23d, N-(2-(Naphthalen-1-yloxy)Ethyl)Benzo[d]Oxazol-2-Amine]	45%	164 to 166 °C	–	–	–
c1ccc2cc(CCCNc3nc4ccccc4o3)ccc2c1 [Compound 23a, N-(3-(Naphthalen-2-yl)Propyl)Benzo[d]Oxazol-2-Amine]	> 80%	128 to 130 °C	–	0.336 µM	–
COc1ccc(CCCNc2nc3ccccc3s2)cc1 [Compound 19c, N-(3-(4-Methoxyphenyl)Propyl)Benzo[d]Thiazol-2-Amine]	62%	104 to 106 °C	–	–	–
c1ccc2cc(OCCNc3nc4ccccc4s3)ccc2c1 [Compound 25a, N-(2-(Naphthalen-2-yloxy)Ethyl)Benzo[d]Thiazol-2-Amine]	63%	170 to 172 °C	–	–	–
COc1ccc(/C=C/C(=O)Nc2nc3ccccc3s2)cc1 [Compound 9b, (E)-N-(Benzo[d]Thiazol-2-yl)-3-(4-Methoxyphenyl)Acrylamide]	25%	252 to 254 °C	–	–	–
COc1ccc(COC(=O)Nc2nc3ccccc3s2)cc1 [Compound 16a, 4-Methoxybenzyl Benzo[d]Thiazol-2-ylcarbamate]	15%	141 to 143 °C	–	–	–
O=C(CCCc1ccc2ccccc2c1)Nc1nc2ccccc2s1 [Compound 5a, N-(Benzo[d]Thiazol-2-yl)-4-(Naphthalen-2-yl)Butanamide]	50%	53 to 55 °C	–	–	–
O=C(COc1ccc2ccccc2c1)Nc1nc2ccccc2s1 [Compound 7, N-(Benzo[d]Thiazol-2-yl)-2-(Naphthalen-2-yloxy)Acetamide]	41%	153 to 155 °C	–	–	–
O=C(CCCc1ccc2ccccc2c1)Nc1nc2ccccc2o1 [Compound 5d, N-(Benzo[d]Oxazol-2-yl)-4-(Naphthalen-2-yl)Butanamide]	73%	52 to 55 °C	–	–	–
COC(CCc1cccc2ccccc12)Nc1nc2ccc(OC(F)(F)F)cc2s1 (centres unmarked) [Compound 18h, N-(1-Methoxy-3-(Naphthalen-1-yl)Propyl)-6-(Trifluoromethoxy)Benzo[d]Thiazol-2-Amine]	–	100 to 102 °C	–	–	–
c1ccc2c(CCCNc3nccs3)cccc2c1 [Compound 19e, N-(3-(Naphthalen-1-yl)Propyl)Thiazol-2-Amine]	> 80%	94 to 97 °C	–	–	biphasic effect
COC(CCc1ccc2ccccc2c1)Nc1nc2ccccc2s1 (centres unmarked) [Compound 18a, N-(1-Methoxy-3-(Naphthalen-2-yl)Propyl)Benzo[d]Thiazol-2-Amine]	46%	–	–	–	–
COc1ccc(CCCNc2nc3ccccc3o2)cc1 [Compound 23b, N-(3-(4-Methoxyphenyl)Propyl)Benzo[d]Oxazol-2-Amine]	79%	85 to 87 °C	–	–	–
c1ccc2cc(OCCNc3nc4ccccc4o3)ccc2c1 [Compound 23c, N-(2-(Naphthalen-2-yloxy)Ethyl)Benzo[d]Oxazol-2-Amine]	> 80%	152 to 153 °C	–	0.894 µM	–
O=C(CCc1ccc2ccccc2c1)Nc1nc2ccccc2[nH]1 [Compound 5e, N-(1H-Benzo[d]Imidazol-2-yl)-3-(Naphthalen-2-yl)Propanamide]	29%	47 to 49 °C	–	–	–
COc1ccc(CCC(Nc2nc3ccccc3s2)OC)cc1 (centres unmarked) [Compound 18c, N-(1-Methoxy-3-(4-Methoxyphenyl)Propyl)Benzo[d]Thiazol-2-Amine]	0%	–	–	–	–
O=C(Nc1nc2ccccc2s1)OCc1ccc2ccccc2c1 [Compound 16b, Naphthalen-2-ylmethyl Benzo[d]Thiazol-2-ylcarbamate]	39%	209 to 211 °C	–	–	–
c1ccc2c(CCCNc3nc4ccccc4s3)cccc2c1 [Compound 19d, N-(3-(Naphthalen-1-yl)Propyl)Benzo[d]Thiazol-2-Amine]	> 80%	134 to 137 °C	–	0.399 µM	–
COc1ccc(CCC(=O)Nc2nc3ccccc3s2)cc1 [Compound 11, N-(Benzo[d]Thiazol-2-yl)-3-(4-Methoxyphenyl)Propanamide]	> 80%	172 to 174 °C	–	0.916 µM	–
COC(CCc1ccc2ccccc2c1)Nc1nc2ccc(OC(F)(F)F)cc2s1 (centres unmarked) [Compound 18g, N-(1-Methoxy-3-(Naphthalen-2-yl)Propyl)-6-(Trifluoromethoxy)Benzo[d]Thiazol-2-Amine]	–	78 to 80 °C	–	–	–
